“And” between values parts separate entries of the source, which are not always exact repeats. Equal entries are not always repeated.
Experiments:
HFD-fed C57BL/6J mice = experiment: DIO mice: tissue weight; type: in vivo, mouse; conditions: for Tissue Weight Kidney / Tissue Weight Liver / Tissue Weight Pancreas / Tissue Weight eWAT / Tissue Weight iWAT: PO; for Predicted (LS) mean diff. (Vehicle vs. 11c), Tissue Weight: Dunnett's multiple comparisons test; for Significant? (Vehicle vs. 11c), Tissue Weight: Dunnett's test, alpha 0.05; for Predicted (LS) mean 2 (11c group), Tissue Weight: test details, in g (unit assumed)
From the text: For in vivo efficacy in DIO models and CDAHFD models, the experimental protocol for this study was approved by the Institutional Animal Care and Use Committee (IACUC) at the Korea Advanced Institute of Science and Technology (No. KA2023-027-v2) or Kyungpook National University (No. KNU-20200134). All relevant ethical guidelines were followed. C57BL/6 J male mice (11 weeks old) were purchased from the Charles River Japan and were housed in a specific pathogen-free barrier facility under a regular light-dark cycle (12-hour light/12-hour dark) at 24°C with 40–60% humidity. Food (standard chow diet, Envigo, 2018S) and water were provided ad libitum. […] Mice were euthanized by the method of cervical dislocation. The measurement of lean and fat mass in live mice was performed by a body composition analyzer (LF50 BCA-analyzer, Bruker). After 6 h of fasting, mice were sacrificed, and tissue samples were obtained.

5HT1D = biological target: T1, 5HT1D (Rattus norvegicus, UniProt P28565); experiment: 5HT subtype antagonism assay (Eurofins Cerep): 5HT1D; type: cell-based; conditions: concentration not given
T1 construct: host or cells: CHO cells
T1 sequence (P28565 whole entry): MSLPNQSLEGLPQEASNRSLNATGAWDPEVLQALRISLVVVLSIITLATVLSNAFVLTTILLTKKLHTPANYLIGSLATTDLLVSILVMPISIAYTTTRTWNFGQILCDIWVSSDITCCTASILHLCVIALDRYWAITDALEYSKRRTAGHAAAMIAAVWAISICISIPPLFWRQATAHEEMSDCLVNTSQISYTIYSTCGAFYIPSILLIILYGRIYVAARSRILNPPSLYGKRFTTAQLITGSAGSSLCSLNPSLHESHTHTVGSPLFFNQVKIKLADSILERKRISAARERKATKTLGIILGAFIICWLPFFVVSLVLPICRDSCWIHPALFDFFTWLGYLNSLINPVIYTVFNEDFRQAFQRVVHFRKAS
Experimental: The derivatives were evaluated at a concentration of 1 μM for their antagonist activity on the 5HT2A receptor (Tables 1–3)[33],[34]. Human 5HT2A stably transfected HEK293 cells (a type of cell derived from kidney embryos)[20] were seeded in a 96-well plate (Costar; 3603) at a density of 9 × 10^4 in 100 μL of minimum essential medium (Welgene; LM007-86) containing 10% dialyzed fetal bovine serum (Gibco; 30067–334) and 1% penicillin/streptomycin (Gibco; 15140-122) and kept in a 37 °C incubator for 24 h. The cells were stained with 100 μL of cytosolic calcium dye using the FLIPR calcium 6 assay solution (Molecular devices, #R8190) supplemented with 2.5 mM probenecid (Sigma; P8761) and incubated for 1 h at 37 °C. After 1 h, the designated amount of the compound was treated in each well and incubated for another 1 h at 37 °C. Then, the cells were loaded in a Flexstation 3 microplate reader (Molecular Devices; FlexStaion) and 50 μL of 5 μM 5HT (serotonin hydrochloride, Sigma; H9523) was injected from a source plate (Nunc 96-well polystyrene conical bottom MicroWell Plate, Thermo; 249662) and the fluorescence intensity (Ex/Em-485nm/ 525 nm) was measured. […]
Antagonism assay Source Stimulus Incubation Measured Detection Method […]

[1] = DIO mice, 5mpk, individual animals, 5 mg/kg
[2] = DIO mice, 10mpk, individual animals, 10 mg/kg

Compound: Cc1nc2n(c(=O)c1CCN1CCC(=C3c4ccc(Cl)cc4CCc4cccnc43)CC1)CCCC2O (centres unmarked) [Compound 11c]
- Tissue Weight Kidney (HFD-fed C57BL/6J mice; DIO mice, 5mpk, group mean): 0.17 g
- Tissue Weight Liver (HFD-fed C57BL/6J mice; DIO mice, 5mpk, group mean): 1.34 g
- Tissue Weight Pancreas (HFD-fed C57BL/6J mice; DIO mice, 5mpk, group mean): 0.39 g
- Tissue Weight eWAT (HFD-fed C57BL/6J mice; DIO mice, 5mpk, group mean): 1.01 g
- Tissue Weight iWAT (HFD-fed C57BL/6J mice; DIO mice, 5mpk, group mean): 1.37 g
- Tissue Weight Kidney (HFD-fed C57BL/6J mice; [1]): 0.166 g and 0.156 g and 0.168 g and 0.162 g and 0.198 g and 0.195 g and 0.164 g
- Tissue Weight Liver (HFD-fed C57BL/6J mice; [1]): 1.353 g and 1.128 g and 1.239 g and 1.293 g and 1.762 g and 1.451 g
- Tissue Weight Pancreas (HFD-fed C57BL/6J mice; [1]): 0.398 g and 0.353 g and 0.255 g and 0.338 g and 0.634 g and 0.394 g and 0.387 g
- Tissue Weight eWAT (HFD-fed C57BL/6J mice; [1]): 1.284 g and 1.045 g and 0.952 g and 0.74 g and 0.897 g and 0.939 g and 1.199 g
- Tissue Weight iWAT (HFD-fed C57BL/6J mice; [1]): 1.826 g and 1.295 g and 1.198 g and 1.045 g and 1.186 g and 1.418 g and 1.644 g
- Tissue Weight Kidney (HFD-fed C57BL/6J mice; DIO mice, 10mpk, group mean): 0.18 g
- Tissue Weight Liver (HFD-fed C57BL/6J mice; DIO mice, 10mpk, group mean): 1.25 g
- Tissue Weight Pancreas (HFD-fed C57BL/6J mice; DIO mice, 10mpk, group mean): 0.36 g
- Tissue Weight eWAT (HFD-fed C57BL/6J mice; DIO mice, 10mpk, group mean): 0.57 g
- Tissue Weight iWAT (HFD-fed C57BL/6J mice; DIO mice, 10mpk, group mean): 1.15 g
- Tissue Weight Kidney (HFD-fed C57BL/6J mice; [2]): 0.183 g and 0.162 g and 0.142 g and 0.267 g and 0.16 g
- Tissue Weight Liver (HFD-fed C57BL/6J mice; [2]): 1.17 g and 1.368 g and 1.031 g and 1.332 g and 1.38 g and 1.246 g
- Tissue Weight Pancreas (HFD-fed C57BL/6J mice; [2]): 0.302 g and 0.381 g and 0.318 g and 0.442 g and 0.387 g and 0.34 g
- Tissue Weight eWAT (HFD-fed C57BL/6J mice; [2]): 0.449 g and 0.747 g and 0.512 g and 0.764 g and 0.418 g
- Tissue Weight iWAT (HFD-fed C57BL/6J mice; [2]): 0.774 g and 1.585 g and 1.202 g and 1.593 g and 1.007 g and 0.712 g
- Tissue weight of inguinal white adipose tissue (iWAT) (HFD-fed C57BL/6J mice; DIO mice, vs vehicle): significantly decreased
- Tissue weight of liver (HFD-fed C57BL/6J mice; DIO mice, vs vehicle): significantly decreased
- Predicted (LS) mean diff. (Vehicle vs. 11c), Tissue Weight (HFD-fed C57BL/6J mice; Kidney, 5mpk): 0.01612
- Significant? (Vehicle vs. 11c), Tissue Weight (HFD-fed C57BL/6J mice; Kidney, 5mpk): No
- Predicted (LS) mean 2 (11c group), Tissue Weight (HFD-fed C57BL/6J mice; Kidney, 5mpk): 0.1727
- Predicted (LS) mean diff. (Vehicle vs. 11c), Tissue Weight (HFD-fed C57BL/6J mice; Kidney, 10mpk): 0.006
- Significant? (Vehicle vs. 11c), Tissue Weight (HFD-fed C57BL/6J mice; Kidney, 10mpk): No
- Predicted (LS) mean 2 (11c group), Tissue Weight (HFD-fed C57BL/6J mice; Kidney, 10mpk): 0.1828
- Predicted (LS) mean diff. (Vehicle vs. 11c), Tissue Weight (HFD-fed C57BL/6J mice; Liver, 5mpk): 0.2072
- Significant? (Vehicle vs. 11c), Tissue Weight (HFD-fed C57BL/6J mice; Liver, 5mpk): No
- Predicted (LS) mean 2 (11c group), Tissue Weight (HFD-fed C57BL/6J mice; Liver, 5mpk): 1.336
- Predicted (LS) mean diff. (Vehicle vs. 11c), Tissue Weight (HFD-fed C57BL/6J mice; Liver, 10mpk): 0.289
- Significant? (Vehicle vs. 11c), Tissue Weight (HFD-fed C57BL/6J mice; Liver, 10mpk): Yes
- Predicted (LS) mean 2 (11c group), Tissue Weight (HFD-fed C57BL/6J mice; Liver, 10mpk): 1.255
- Predicted (LS) mean diff. (Vehicle vs. 11c), Tissue Weight (HFD-fed C57BL/6J mice; Pancreas, 5mpk): 0.1064
- Significant? (Vehicle vs. 11c), Tissue Weight (HFD-fed C57BL/6J mice; Pancreas, 5mpk): No
- Predicted (LS) mean 2 (11c group), Tissue Weight (HFD-fed C57BL/6J mice; Pancreas, 5mpk): 0.3941
- Predicted (LS) mean diff. (Vehicle vs. 11c), Tissue Weight (HFD-fed C57BL/6J mice; Pancreas, 10mpk): 0.1388
- Significant? (Vehicle vs. 11c), Tissue Weight (HFD-fed C57BL/6J mice; Pancreas, 10mpk): No
- Predicted (LS) mean 2 (11c group), Tissue Weight (HFD-fed C57BL/6J mice; Pancreas, 10mpk): 0.3617
- Predicted (LS) mean diff. (Vehicle vs. 11c), Tissue Weight (HFD-fed C57BL/6J mice; eWAT, 5mpk): -0.00381
- Significant? (Vehicle vs. 11c), Tissue Weight (HFD-fed C57BL/6J mice; eWAT, 5mpk): No
- Predicted (LS) mean 2 (11c group), Tissue Weight (HFD-fed C57BL/6J mice; eWAT, 5mpk): 1.373
- Predicted (LS) mean diff. (Vehicle vs. 11c), Tissue Weight (HFD-fed C57BL/6J mice; eWAT, 10mpk): 0.2238
- Significant? (Vehicle vs. 11c), Tissue Weight (HFD-fed C57BL/6J mice; eWAT, 10mpk): No
- Predicted (LS) mean 2 (11c group), Tissue Weight (HFD-fed C57BL/6J mice; eWAT, 10mpk): 1.146
- Predicted (LS) mean diff. (Vehicle vs. 11c), Tissue Weight (HFD-fed C57BL/6J mice; iWAT, 5mpk): 0.08033
- Significant? (Vehicle vs. 11c), Tissue Weight (HFD-fed C57BL/6J mice; iWAT, 5mpk): No
- Predicted (LS) mean 2 (11c group), Tissue Weight (HFD-fed C57BL/6J mice; iWAT, 5mpk): 1.008
- Predicted (LS) mean diff. (Vehicle vs. 11c), Tissue Weight (HFD-fed C57BL/6J mice; iWAT, 10mpk): 0.5213
- Significant? (Vehicle vs. 11c), Tissue Weight (HFD-fed C57BL/6J mice; iWAT, 10mpk): Yes
- Predicted (LS) mean 2 (11c group), Tissue Weight (HFD-fed C57BL/6J mice; iWAT, 10mpk): 0.567
- Selectivity 1D: % inhibition (5HT1D): 3%

Reference: article PMC10799935, “Discovery of a peripheral 5HT2A antagonist as a clinical candidate for metabolic dysfunction-associated steatohepatitis” (Nature Communications, 2024)
